A short description of assay [1]: Inhibition of alpha-glucosidase.
A short description of assay [2]: Inhibition of alpha-galactosidase.

Activity calls are given as the source filed them. No rule for the calls is given here.
Also: test concentration or dose not given here.

As to `Cc1cc(C)cc(S(=O)(=O)N2CCN(c3nc(-c4cccs4)nc4ccccc34)CC2)c1`, the outcome in assay [1] and in assay [2] was inactive.

As for `O=S(=O)(c1cccnc1)N1CCN(c2nc(-c3cccs3)nc3ccccc23)CC1`, the outcome in assay [1] and in assay [2] was inactive.

Take `O=S(=O)(c1ccccc1C(F)(F)F)N1CCN(c2nc(-c3ccccc3)nc3ccccc23)CC1`: the result in assay [1] and in assay [2] was inactive.

Regarding `O=[N+]([O-])c1ccc(S(=O)(=O)N2CCN(c3nc(-c4cccs4)nc4ccccc34)CC2)cc1`, the outcome in assay [1] and in assay [2] was inactive.

As for `O=S(=O)(c1ccc2c(Cl)cccc2c1)N1CCN(c2nc(-c3cccs3)nc3ccccc23)CC1`, the result in assay [1] and in assay [2] was inactive.

With `N#Cc1ccccc1S(=O)(=O)N1CCN(c2nc(-c3ccccc3)nc3ccccc23)CC1`, the outcome in assay [1] and in assay [2] was inactive.

For `Oc1ccc(N2CCN(c3nc(-c4cccs4)nc4ccccc34)CC2)cc1`, the outcome in assay [1] and in assay [2] was inactive.

On to `O=S(=O)(c1ccc2c(c1)CCCC2)N1CCN(c2nc(-c3cccs3)nc3ccccc23)CC1`, for which the result in assay [1] and in assay [2] was inactive.

For the compound `O=S(=O)(c1ccc2ncccc2c1)N1CCN(c2nc(-c3cccs3)nc3ccccc23)CC1`, the outcome in assay [1] and in assay [2] was inactive.

As to `CC(C)(C)C(=O)OCCNc1nc(-c2cccs2)nc2ccccc12`, the outcome in assay [1] and in assay [2] was inactive.

For the compound `O=S(=O)(c1ccsc1)N1CCN(c2nc(-c3cccs3)nc3ccccc23)CC1`, the result in assay [1] and in assay [2] was inactive.

For the compound `N#Cc1ccc(S(=O)(=O)N2CCN(c3nc(-c4cccs4)nc4ccccc34)CC2)cc1`, the outcome in assay [1] and in assay [2] was inactive.

For `CCOc1ccc(S(=O)(=O)N2CCN(c3nc(-c4ccccc4)nc4ccccc34)CC2)cc1OCC`, the result in assay [1] and in assay [2] was inactive.

`CC(C)(C)c1ccc(S(=O)(=O)N2CCN(c3nc(-c4ccccc4)nc4ccccc34)CC2)cc1`: the result in assay [1] and in assay [2] was inactive.

Take `Cc1ccc(S(=O)(=O)N2CCN(c3nc(-c4ccc(CN5CCOCC5)s4)nc4ccccc34)CC2)cc1`: the result in assay [1] and in assay [2] was inactive.

On to `O=[N+]([O-])c1ccccc1S(=O)(=O)N1CCN(c2nc(-c3cccs3)nc3ccccc23)CC1`, for which the result in assay [1] and in assay [2] was inactive.

As for `O=S(=O)(c1ccc(C(F)(F)F)cc1)N1CCN(c2nc(-c3ccccc3)nc3ccccc23)CC1`, the outcome in assay [1] and in assay [2] was inactive.

Regarding `Cc1ccc(S(=O)(=O)N2CCN(c3nc(-c4ccncc4)nc4ccccc34)CC2)cc1`, the outcome in assay [1] and in assay [2] was inactive.

On to `O=S(=O)(c1cccc2ccccc12)N1CCN(c2nc(-c3cccs3)nc3ccccc23)CC1`, for which the result in assay [1] and in assay [2] was inactive.

Take `Cc1ccc(S(=O)(=O)N(C)CCN(C)c2nc(-c3cccs3)nc3ccccc23)cc1`: the result in assay [1] and in assay [2] was inactive.

Turning to `O=S(=O)(c1cccc(C(F)(F)F)c1)N1CCN(c2nc(-c3cccs3)nc3ccccc23)CC1`, the result in assay [1] and in assay [2] was inactive.

On to `Cc1ccc(S(=O)(=O)N2CCN(c3nc(-c4ccoc4)nc4ccccc34)CC2)cc1`, for which the result in assay [1] and in assay [2] was inactive.

As for `O=S(=O)(Cc1ccccc1)N1CCN(c2nc(-c3cccs3)nc3ccccc23)CC1`, the result in assay [1] and in assay [2] was inactive.

On to `Cc1ccc(S(=O)(=O)N2CCN(c3nc(-c4ccccc4)nc4ccccc34)CC2)cc1`, for which the outcome in assay [1] and in assay [2] was inactive.

Turning to `Cc1ccc(S(=O)(=O)N2CCN(c3nc(-c4ccc(CN5CCNCC5)s4)nc4ccccc34)CC2)cc1`, the outcome in assay [1] and in assay [2] was inactive.

For the compound `O=S(=O)(NCCNc1nc(-c2ccco2)nc2ccccc12)c1ccccc1`, the result in assay [1] and in assay [2] was inactive.

As to `O=S(=O)(/C=C/c1ccccc1)N1CCN(c2nc(-c3ccccc3)nc3ccccc23)CC1`, the result in assay [1] and in assay [2] was inactive.

As to `Cc1ccc(S(=O)(=O)N2CCN(c3nc(-c4cccs4)nc4ccccc34)CC2)c(C)c1`, the outcome in assay [1] and in assay [2] was inactive.

Turning to `O=S(=O)(c1ccc(F)cc1)N1CCN(c2nc(-c3ccccc3)nc3ccccc23)CC1`, the outcome in assay [1] and in assay [2] was inactive.

For `CC(C)S(=O)(=O)N1CCN(c2nc(-c3cccs3)nc3ccccc23)CC1`, the result in assay [1] and in assay [2] was inactive.

Turning to `Cc1ccc(S(=O)(=O)N2CCN(c3nc(-c4cscn4)nc4ccccc34)CC2)cc1`, the outcome in assay [1] and in assay [2] was inactive.

Regarding `O=S(=O)(c1ccc(Br)cc1)N1CCN(c2nc(-c3ccccc3)nc3ccccc23)CC1`, the outcome in assay [1] and in assay [2] was inactive.

Take `O=S(=O)(c1ccc(Cl)cc1)N1CCN(c2nc(-c3ccccc3)nc3ccccc23)CC1`: the result in assay [1] and in assay [2] was inactive.

For the compound `O=S(=O)(c1ccccc1Br)N1CCN(c2nc(-c3ccccc3)nc3ccccc23)CC1`, the result in assay [1] and in assay [2] was inactive.

As for `O=[N+]([O-])c1ccccc1S(=O)(=O)N1CCN(c2nc(-c3ccccc3)nc3ccccc23)CC1`, the result in assay [1] and in assay [2] was inactive.

Regarding `O=S(=O)(c1ccc(C(F)(F)F)cc1)N1CCN(c2nc(-c3cccs3)nc3ccccc23)CC1`, the outcome in assay [1] and in assay [2] was inactive.

For the compound `COC(=O)c1nc(N2CCN(S(=O)(=O)c3ccc(C)cc3)CC2)c2ccccc2n1`, the outcome in assay [1] and in assay [2] was inactive.

Take `Cc1ccc(S(=O)(=O)N2CCN(c3nc(-c4ccc(C)s4)nc4ccccc34)CC2)cc1`: the outcome in assay [1] and in assay [2] was inactive.

On to `CS(=O)(=O)N1CCN(c2nc(-c3cccs3)nc3ccccc23)CC1`, for which the outcome in assay [1] and in assay [2] was inactive.

On to `Cc1ccc(S(=O)(=O)N2CCN(c3nc(-c4cnccn4)nc4ccccc34)CC2)cc1`, for which the result in assay [1] and in assay [2] was inactive.

Turning to `Cc1ccc(S(=O)(=O)N2CCN(c3ccnc(-c4cccs4)n3)CC2)cc1`, the outcome in assay [1] and in assay [2] was inactive.

Turning to `O=S(=O)(c1ccc2c(c1)CCCC2)N1CCN(c2nc(-c3ccccc3)nc3ccccc23)CC1`, the result in assay [1] and in assay [2] was inactive.

As to `Cc1ccc(S(=O)(=O)N2CCN(c3nc(-c4ccnnc4)nc4ccccc34)CC2)cc1`, the result in assay [1] and in assay [2] was inactive.

In the case of `COc1ccc(N2CCN(c3nc(-c4cccs4)nc4ccccc34)CC2)cc1`, the result in assay [1] and in assay [2] was inactive.

Regarding `O=S(=O)(c1ccc2c(c1)OCO2)N1CCN(c2nc(-c3cccs3)nc3ccccc23)CC1`, the result in assay [1] and in assay [2] was inactive.

For `O=S(=O)(c1ccccc1)N1CCN(c2nc(-c3cccs3)nc3ccccc23)CC1`, the result in assay [1] and in assay [2] was inactive.

Consider `O=S(=O)(c1ccc(F)cc1)N1CCN(c2nc(-c3cccs3)nc3ccccc23)CC1`, for which the result in assay [1] and in assay [2] was inactive.

In the case of `Cc1ccc(S(=O)(=O)N(C)CCCN(C)c2nc(-c3cccs3)nc3ccccc23)cc1`, the result in assay [1] and in assay [2] was inactive.

Turning to `CCOC(=O)c1ccc(S(=O)(=O)N2CCN(c3nc(-c4cccs4)nc4ccccc34)CC2)cc1`, the outcome in assay [1] and in assay [2] was inactive.

As for `Cc1ccc(S(=O)(=O)N2CCN(c3nc(-c4cccs4)nc4ncccc34)CC2)cc1`, the result in assay [1] and in assay [2] was inactive.

For the compound `N#Cc1ccccc1S(=O)(=O)N1CCN(c2nc(-c3cccs3)nc3ccccc23)CC1`, the result in assay [1] and in assay [2] was inactive.

Consider `Cc1ccc(S(=O)(=O)N2CCN(c3nc(-c4cncs4)nc4ccccc34)CC2)cc1`, for which the outcome in assay [1] and in assay [2] was inactive.

Turning to `Cc1ccc(S(=O)(=O)N2CCCN(c3nc(-c4cccs4)nc4ccccc34)CC2)cc1`, the result in assay [1] and in assay [2] was inactive.

With `O=S(=O)(c1cnc2ccccc2c1)N1CCN(c2nc(-c3cccs3)nc3ccccc23)CC1`, the result in assay [1] and in assay [2] was inactive.

`O=S(=O)(c1ccc(Cl)cc1)N1CCN(c2nc(-c3cccs3)nc3ccccc23)CC1`: the result in assay [1] and in assay [2] was inactive.

Take `CC(=O)c1ccc(S(=O)(=O)N2CCN(c3nc(-c4cccs4)nc4ccccc34)CC2)cc1`: the outcome in assay [1] and in assay [2] was inactive.

As to `O=C(c1ccccc1)N1CCN(c2nc(-c3cccs3)nc3ccccc23)CC1`, the result in assay [1] and in assay [2] was inactive.

Turning to `COc1ccc(S(=O)(=O)N2CCN(c3nc(-c4cccs4)nc4ccccc34)CC2)cc1`, the outcome in assay [1] and in assay [2] was inactive.

The record behind these values is ChEMBL document CHEMBL1671789, “Evaluation of quinazoline analogues as glucocerebrosidase inhibitors with chaperone activity” (J Med Chem, 2011).
